From BigSolDB 2.1

COC(=O)/C=C(\C)N[C@@H](C(=O)[O-])c1ccc(O)cc1.[K+]
Conditions | solubility (mole fraction)
in 2-pentanol, 293.25 K | 6.22e-05
in 2-pentanol, 298.28 K | 7.86e-05
in 2-pentanol, 303.35 K | 9.99e-05
in 2-pentanol, 308.19 K | 0.000117
in 2-pentanol, 313.15 K | 0.000141
in 2-pentanol, 318.29 K | 0.000169
in 2-pentanol, 323.15 K | 0.000196
in 2-pentanol, 328.34 K | 0.000233
in 2-pentanol, 333.05 K | 0.000267
in 2-pentanol, 338.24 K | 0.00031
in 2-pentanol, 343.26 K | 0.000354
in ethanol, 293.25 K | 0.000405
in ethanol, 298.26 K | 0.000437
in ethanol, 303.25 K | 0.000478
in ethanol, 308.19 K | 0.000519
in ethanol, 313.09 K | 0.00056
in ethanol, 318.26 K | 0.000629
in ethanol, 323.11 K | 0.000681
in ethanol, 328.18 K | 0.000753
in ethanol, 333.41 K | 0.000834
in ethanol, 338.31 K | 0.000916
in ethanol, 343.35 K | 0.00104
in isopropanol, 293.25 K | 5.74e-05
in isopropanol, 298.23 K | 6.38e-05
in isopropanol, 303.05 K | 7.22e-05
in isopropanol, 308.41 K | 8.4e-05
in isopropanol, 313.15 K | 9.66e-05
in isopropanol, 318.26 K | 0.000112
in isopropanol, 323.15 K | 0.00013
in isopropanol, 328.19 K | 0.00015
in isopropanol, 333.35 K | 0.000173
in isopropanol, 338.27 K | 0.000198
in isopropanol, 343.25 K | 0.000225
in methanol, 293.15 K | 0.00346
in methanol, 298.22 K | 0.0037
in methanol, 303.15 K | 0.00396
in methanol, 308.19 K | 0.00424
in methanol, 313.35 K | 0.00454
in methanol, 318.27 K | 0.00485
in methanol, 323.35 K | 0.00519
in methanol, 328.16 K | 0.00552
in methanol, 333.35 K | 0.006
in n-butanol, 293.15 K | 9.97e-05
in n-butanol, 298.31 K | 0.00011
in n-butanol, 302.95 K | 0.000122
in n-butanol, 308.19 K | 0.000139
in n-butanol, 312.95 K | 0.000158
in n-butanol, 318.16 K | 0.000181
in n-butanol, 323.25 K | 0.000207
in n-butanol, 328.29 K | 0.000237
in n-butanol, 333.17 K | 0.000268
in n-butanol, 338.32 K | 0.000304
in n-butanol, 342.95 K | 0.000339
in n-pentanol, 293.05 K | 8.48e-05
in n-pentanol, 298.25 K | 0.000102
in n-pentanol, 303.25 K | 0.000119
in n-pentanol, 308.19 K | 0.000134
in n-pentanol, 313.07 K | 0.000152
in n-pentanol, 318.26 K | 0.00017
in n-pentanol, 323.25 K | 0.00019
in n-pentanol, 328.17 K | 0.000209
in n-pentanol, 333.25 K | 0.000226
in n-pentanol, 338.13 K | 0.000252
in n-pentanol, 343.35 K | 0.000279
in n-propanol, 293.15 K | 0.000178
in n-propanol, 298.23 K | 0.000191
in n-propanol, 303.05 K | 0.000206
in n-propanol, 308.18 K | 0.000228
in n-propanol, 313.05 K | 0.000256
in n-propanol, 318.29 K | 0.00028
in n-propanol, 323.05 K | 0.000306
in n-propanol, 328.21 K | 0.000345
in n-propanol, 333.25 K | 0.000382
in n-propanol, 338.34 K | 0.000427
in n-propanol, 343.35 K | 0.000476
in sec-butanol, 293.35 K | 3.51e-05
in sec-butanol, 298.24 K | 4.38e-05
in sec-butanol, 303.05 K | 5.87e-05
in sec-butanol, 308.17 K | 6.64e-05
in sec-butanol, 313.05 K | 8.11e-05
in sec-butanol, 318.36 K | 9.62e-05
in sec-butanol, 323.23 K | 0.000113
in sec-butanol, 328.26 K | 0.000132
in sec-butanol, 333.15 K | 0.000151
in sec-butanol, 338.28 K | 0.000174
in sec-butanol, 343.23 K | 0.000197
